Assay [1] has as its system p53, p21^WAF1, Mcl-1 in MCF-7 cells. In words: Immunoblotting of p53, p21WAF1 and Mcl-1 in MCF-7 cells. The format is cell-based, human. The note with it: MCF7, 24 h, concentration dependent, immunoblotting. As to the method: (§1) For immunoblotting, cell were detached with rubber policeman and washed three times with ice-cold PBS and lysed in buffer (50 mM Tris, pH 7.4, 250 mM NaCl, 5 mM EDTA, 50 mM NaF, 1 mM Na3VO4, 1% Nonidet P40) containing mixture of protease and phosphatase inhibitors (Sigma-Aldrich, USA). 20 μg of total proteins were separated by SDS-polyacrylamide gel electrophoresis (SDS-PAGE) and transferred onto nitrocellulose membranes. Membranes were blocked in 5% milk and 0.1% Tween 20 in PBS and probed overnight with specific monoclonal antibodies or rabbit polyclonal sera. Primary antibodies specific for p53 (DO-1, in house), p21^WAF1 (118, in house), PARP-1 (2C10, Sigma-Aldrich St Louis, Mo., USA), Mcl-1 (S-19, Santa Cruz, USA), all used at 1 μg/ml. All primary antibodies were diluted in PBS containing 5% powdered milk; 0.1% Tween 20. Peroxidase conjugated rabbit anti-mouse immunoglobulin or porcine anti-rabbit immunoglobulin antisera (DAKO, Denmark) were used as the secondary antibodies and visualised with ECL reagents (Amersham-Pharmacia, Little Chalfont, UK).
The induction of p53 protein was apparent in 4 hrs but enhanced level of p21^WAF1 protein was observed only 12 hours after treatment with compound 128 (FIG. 5). The periods of time 12 and 24 hrs were chosen, since the level of protein expression reached a steady state.
In general terms: A western blot detects proteins with antibodies after separation by electrophoresis.

Another assay relates to p53 in RPMI-8226 cells. In words: Immunoblotting in RPMI-8226 cells with temperature-sensitive p53 (E285K) at permissive and restrictive temperature. The format is cell-based, human. The note with it: RPMI-8226 cells, 30° C. versus restrictive temperature. The method, then: as §1, with “Primary antibodies specific for p53 (DO-1, in house), p21^WAF1 (118, in house), PARP-1 (2C10, Sigma-Aldrich St Louis, Mo., USA), Mcl-1 (S-19, Santa Cruz, USA), all used at 1 μg/ml.” left out
Then, we also determined effect of the compounds on the cell lines expressing some temperature-sensitive mutants of p53. For example, in BT474 and RPMI-8226 cells bearing temperature-sensitive mutant of p53 (E285K), p53 protein switches between mutant and wild-type conformation in a temperature-dependent manner. At restrictive (37° C.) temperature mutated p53 protein is expressed, while after shift to a permissive (30° C.) temperature p53 is folded correctly and functional. To analyze the functional involvement of p53 in the efficiency of the treatment with the compounds, we cultivated RPMI-8226 cells independently at two different temperatures (restrictive or permissive), and exposed them to increasing doses of selected compounds. The cell lysates were prepared and the levels of cell cycle regulators were analysed by immunoblotting.

The test system of the next assay is β-adrenergic receptors. As to the kind of experiment: Modulation of the activity of β-adrenergic receptors (isoproterenol-induced cAMP synthesis in C6 glioma). The note with it: rat C6 glioma, cAMP synthesis induced by 5 μM (−) isoproterenol, 30 min, simultaneous addition. The format is cell-based. As to the method:
Mechanism of action of novel compounds is presented on FIG. 2. […] Incubation was at 37° C. in a humidified atmosphere. Assays were performed in the logaritmic growth phase at a density of 2.5×10^5 cells/cm^2. Intracellular cAMP synthesis was induced by addition of 5 μM (−) isoproterenol. After 30 min incubation at 37° C. the medium was removed and the cellular amount of cAMP determined using the cAMP-enzyme immunoassay kit of Amersham. The I50 is determined from a dose-response curve in duplicate. The effect of several novel substituted 6-(2-hydroxybenzylamino)purine derivatives was measured after simultaneous addition with isoproterenol.
As P2Y1-like and A2 purinergic receptors, negatively and positively coupled to adenylate cyclase respectively, are present on rat C6 glioma. It has to be determined if the modulation of the synthesis of cAMP is due to inhibition of the activation of β-adrenergic receptors by isoproterenol are due to activation of purinergic receptors.

Assay [2] has as its system C-terminal domain of RNA polymerase II (serine 2 and serine 5 phosphorylation). As to the kind of experiment: Immunoblotting of RNA polymerase II CTD phosphorylation (CDK9 activity in cells), MCF-7. The note with it: MCF-7 cells. Format: cell-based, human. The method, then: Effect of compounds on CDK9 activity in cells was monitored by site-specific phosphorylations of C-terminal domain of RNA polymerase II, a substrate of CDK9, by means of immunoblotting. For immunoblotting, cell were detached with rubber policeman and washed three times with ice-cold PBS and lysed in buffer (50 mM Tris, pH 7.4, 250 mM NaCl, 5 mM EDTA, 50 mM NaF, 1 mM Na3VO4, 1% Nonidet P40) containing mixture of protease and phosphatase inhibitors (Sigma-Aldrich, USA). 20 μg of total proteins were separated by SDS-polyacrylamide gel electrophoresis (SDS-PAGE) and transferred onto nitrocellulose membranes. Membranes were blocked in 5% milk and 0.1% Tween 20 in PBS and probed overnight with specific monoclonal antibodies or rabbit polyclonal sera. Primary antibodies specific for RNA polymerase II (all from Santa Cruz Biotechnology, California, USA) included: (i) N-20 used at 1 μg/ml, (ii) H14, specific for form phosphorylated at phosphoserine 5, used at 6 μg/ml and (iii) H5, specific for form phosphorylated at phosphoserine 2 used at 4 μg/ml. […] All primary antibodies were diluted in PBS containing 5% powdered milk; 0.1% Tween 20. Peroxidase conjugated rabbit anti-mouse immunoglobulin or porcine anti-rabbit immunoglobulin antisera (DAKO, Denmark) were used as the secondary antibodies and visualised with ECL reagents (Amersham-Pharmacia, Little Chalfont, UK). […]

The subject of another assay is p53. As to the kind of experiment: p53-dependent transcription, β-galactosidase reporter in Arn8 cells. Format: cell-based, human. Also noted: key to p53 (effect): induction of p53 protein: ++: very strong; +: weak; −: no effect. From the text:
Protein p53, accumulated in nuclei upon treatment by the compounds, then leads to trans-activation of natural cell cycle inhibitor p21^WAF1, further blocking the cell cycle. […] This allows qualitative as well as quantitative measurement of CDK inhibitors-induced p53 transcriptional activity via β-galactosidase assay. Then, the effect will be verified in treated cells by immunoblotting of proteins expressed under the control of p53. β-galactosidase activity of human melanoma cell line Arn8 was determined as described. […] Alternatively, β-galactosidase activity was quantified by measuring fluorescence of methylumbelliferyl-β-D-galactopyranoside cleavage product. Cell lines established from the human breast carcinoma (MCF-7) and the human melanoma (Arn8) cell lines were cultured in Dubecco's Modified Eagle Medium (DMEM) supplemented with 10% foetal bovine serum.
Effects of prepared compounds on activation of p53 protein were analysed in human melanoma cell line Arn8. […] The total β-galactosidase activity in Arn8 cells was quantified using a fluorimetric assay.

Entries after “also recorded” stand apart in the source; their conditions may differ.

For `CC[C@H](CO)Nc1nc(NCc2ccccc2)c2ncn(C(C)C)c2n1` [ROSC, roscovitine, reference compound], in assay [1], the “expression of p53, p21^Waf1 and Mcl-1” value is “accumulation of tumor suppressor protein p53, expression of p53-regulated CDK inhibitor p21^Waf1 and downregulation of antiapoptotic protein Mcl-1”. Moreover, in the assay on p53 in RPMI-8226 cells, the “expression of anti-apoptotic protein Mcl-1” value is “suppressed more efficiently at 30 °C”. Besides, the “EFFECT (modulation of the activity of β-adrenergic receptors)” value in the assay with β-adrenergic receptors was “inactive”. In addition, the “levels of serine 2 and serine 5 phosphorylation of RNA polymerase II CTD” value in assay [2] was “substantially reduced; also recorded: is inhibited”. Besides, the “p53 (effect): induction of p53 protein” value with p53 (Arn8 cells stable transfected with a β-galactosidase reporter gene) was “++”. For the same molecule, the “activation of p53-dependent transcription” value in the assay with p53 (Arn8 reporter cell line, β-galactosidase reporter activity) is “proved to activate p53-dependent transcription”.

The values above are taken from patent US8492391B2, “Substituted 6-(2-hydroxybenzylamino)purine derivatives, their use as medicaments and compositions containing these derivatives” (Univerzita Palackeho V Olomouci, priority 2009, dated 2013).
